Reference: patent US12551500B2, “C6′-substituted locked nucleic acid-modified cap analog and use thereof” (Hangzhou Tianlong Pharmaceutical Co., Ltd., priority 2024, dated 2026)

Tests used:
[1] = target: T1, T7 RNA polymerase (Escherichia phage T7, UniProt P00573); assay: In vitro transcription yield of mRNA with cap analog (co-transcriptional capping); type: biochemical; conditions: for Yield per unit template: in vitro transcription, 1 μg DNA template, 20 μL system, 37° C. 2 hours; for transcription yield higher than that of compound 14: relative to compound 14
Experimental: (1) Capping synthesis using cap analogs
The plasmid was first linearized with plasmid linearizing enzyme, and then the linearized plasmid was purified.
(2) In vitro transcription and synthesis of mRNA
(§1) YK-CAP-001 to 006 and compound 14 in Table 1 were respectively used as cap analogs.
(§2) During the experiment, the volume of materials required for the system was first calculated, and then sample addition was conducted. The system was first added with sterile enzyme-free water, followed by the sequential addition of 10× buffer, NTPs, and cap analogs, mixed well, and gently centrifuged. Nuclease inhibitors, inorganic pyrophosphatase, T7 RNA polymerase, and linearized DNA templates were then added thereto. The system was mixed well, gently centrifuged, and incubated at 37° C. After 2 hours of incubation, the system was added with 1 U of DNase I and incubated at 37° C. for another 30 minutes. The mRNA precipitate was then washed with 75% ethanol, and after the ethanol was briefly evaporated to dryness, the mRNA was redissolved in sterile enzyme-free water.
(3) The transcription product was purified, and the in vitro transcription yield of mRNA was recorded.

[2] = target: T1, T7 RNA polymerase; assay: Capping rate of in vitro transcribed mRNA by LC-MS; type: biochemical; conditions: for capping rate higher than that of compound 14: difference to compound 14
Experimental: as §1, §2
(4) The obtained mRNA was subjected to an annealing reaction with a probe.
The annealing reaction was performed in a PCR instrument: 95° C. for 5 minutes; 65° C. for 2 minutes; 55° C. for 2 minutes; 40° C. for 2 minutes; 22° C. for 2 minutes.
(5) Magnetic bead pretreatment and probe binding: 100 μL of magnetic beads was placed on a magnetic frame for pretreatment. The magnetic bead solution was added with 120 μL of sample and incubated at room temperature for 30 minutes with slow mixing.
(6) mRNA splicing and obtaining the 5′ single-strand sequence bound to the probe
The mixture was added with 20 μL of RNase H (5 U/μL) and incubated at 37° C. for 3 hours with mixing every half hour. After incubation, the magnetic beads were washed and then added with 100 μL of 75% methanol heated to 80° C. The mixture was heated to 80° C. on a heating plate, held for 3 minutes, then placed on a magnetic frame to aspirate the supernatant, and dried at room temperature for 45 minutes to a volume of 10 μL using a centrifugal evaporator. The sample was then resuspended in 50 μL of 100 μM EDTA/1% MeOH and ready for LC-MS analysis to determine the capping of RNA in the transcription reaction. Since there is a significant difference in molecular weight between capped and uncapped bases, the capping rate of mRNA transcription initiated by different cap analogs can be determined based on the difference in molecular mass.

[3] = test system: HEK293T cells; assay: Translation efficiency of capped luciferase mRNAs; type: cell-based; conditions: for relative fluorescence intensity, times that of HN3002: ratio to HN3002; for relative fluorescence intensity, times that of N-7413: ratio to N-7413; for relative fluorescence intensity, times that of YK-CAP-001: ratio to YK-CAP-001; for relative fluorescence intensity, times that of YK-CAP-002: ratio to YK-CAP-002; for relative fluorescence intensity, times that of m6A: ratio to m6A
Experimental: (1) HEK293T cells were cultured in DMEM medium containing 10% FBS and penicillin/streptomycin at 37° C. with 5% CO2.
(2) Cells in the culture dish were digested and counted, then spread in a 96-well plate at 10,000 cells per well, and cultured overnight until the cells adhered to the wall.
(3) When the cell density reached approximately 80%, transfection was performed by adding 0.5 μg of mRNA sample and Lipofectamine MessengerMAX Transfection Reagent (Invitrogen) per well according to the manufacturer's instructions.
(4) After the transfected cells were cultured at 37° C. with 5% CO2 for 24 hours, the growth medium was removed from the cells to be tested, and the cells were rinsed with PBS. After centrifugation to remove PBS, 50 μL of 1× lysis buffer was added. The cells and all liquid were transferred to a microcentrifuge tube and centrifuged.
(5) 20 μL of sample was taken and added to 100 μL of Dual-Lumi™ II Luciferase Assay Reagent pre-equilibrated to room temperature, and mixed appropriately.
(6) The mixture was incubated at room temperature (approximately 25° C.) for 5 minutes to stabilize the luminescence signal. Chemiluminescence was detected using a multifunctional microplate reader with a function for detecting chemiluminescence, and the data were recorded.

[4] = target: T2, DCP2 enzyme (Schizosaccharomyces pombe, UniProt O13828); assay: Decapping enzyme stability test; type: biochemical; conditions: for Decapping rate (%) of DCP2 enzyme: 30 pmol RNA, 50 U mRNA decapping enzyme, 37° C., 45 minutes; for decapping rate lower than that of HN3002: difference to HN3002; for decapping rate lower than that of N-7413: difference to N-7413; for decapping rate lower than that of YK-CAP-001: difference to YK-CAP-001; for decapping rate lower than that of YK-CAP-002: difference to YK-CAP-002; for decapping rate lower than that of compound 14: difference to compound 14; for decapping rate lower than that of m6A: difference to m6A
T2 construct: purchased New England Biolabs
T2 sequence (O13828 1-243 limits assumed): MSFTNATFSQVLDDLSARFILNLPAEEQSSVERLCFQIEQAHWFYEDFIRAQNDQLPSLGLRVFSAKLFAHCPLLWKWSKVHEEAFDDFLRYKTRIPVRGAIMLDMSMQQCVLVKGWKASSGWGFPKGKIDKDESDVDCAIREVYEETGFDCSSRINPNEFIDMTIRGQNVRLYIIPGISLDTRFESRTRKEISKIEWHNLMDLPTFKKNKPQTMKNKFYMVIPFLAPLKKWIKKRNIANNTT
T2 sequence (Q9P805 1-127 partner): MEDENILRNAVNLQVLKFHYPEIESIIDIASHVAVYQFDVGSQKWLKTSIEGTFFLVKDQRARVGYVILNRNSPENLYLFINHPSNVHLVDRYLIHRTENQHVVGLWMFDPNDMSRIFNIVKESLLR
T2 sequence (Q10108 155-180 partner limits assumed): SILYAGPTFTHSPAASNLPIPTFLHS
Experimental: 30 pmol of RNAs purified by polyacrylamide gel electrophoresis (PAGE) was subjected to an enzymatic reaction with 50 U of mRNA decapping enzyme (New England Biolabs) and 1×MDE buffer at 37° C. for 45 minutes. The enzymatic reactants were subjected to PAGE and stained with SYBR Green II (Lonza), followed by observation of the post-electrophoresis gel image on a Typhoon FLA 7000 (GE Healthcare) instrument. The electrophoresis band intensity ratio of RNA capping to RNA decapping was counted using ImageQuant (GE Healthcare) software, and the decapping rate of the decapping enzyme was calculated (as shown in Table 6).

T1 sequence (P00573 whole entry): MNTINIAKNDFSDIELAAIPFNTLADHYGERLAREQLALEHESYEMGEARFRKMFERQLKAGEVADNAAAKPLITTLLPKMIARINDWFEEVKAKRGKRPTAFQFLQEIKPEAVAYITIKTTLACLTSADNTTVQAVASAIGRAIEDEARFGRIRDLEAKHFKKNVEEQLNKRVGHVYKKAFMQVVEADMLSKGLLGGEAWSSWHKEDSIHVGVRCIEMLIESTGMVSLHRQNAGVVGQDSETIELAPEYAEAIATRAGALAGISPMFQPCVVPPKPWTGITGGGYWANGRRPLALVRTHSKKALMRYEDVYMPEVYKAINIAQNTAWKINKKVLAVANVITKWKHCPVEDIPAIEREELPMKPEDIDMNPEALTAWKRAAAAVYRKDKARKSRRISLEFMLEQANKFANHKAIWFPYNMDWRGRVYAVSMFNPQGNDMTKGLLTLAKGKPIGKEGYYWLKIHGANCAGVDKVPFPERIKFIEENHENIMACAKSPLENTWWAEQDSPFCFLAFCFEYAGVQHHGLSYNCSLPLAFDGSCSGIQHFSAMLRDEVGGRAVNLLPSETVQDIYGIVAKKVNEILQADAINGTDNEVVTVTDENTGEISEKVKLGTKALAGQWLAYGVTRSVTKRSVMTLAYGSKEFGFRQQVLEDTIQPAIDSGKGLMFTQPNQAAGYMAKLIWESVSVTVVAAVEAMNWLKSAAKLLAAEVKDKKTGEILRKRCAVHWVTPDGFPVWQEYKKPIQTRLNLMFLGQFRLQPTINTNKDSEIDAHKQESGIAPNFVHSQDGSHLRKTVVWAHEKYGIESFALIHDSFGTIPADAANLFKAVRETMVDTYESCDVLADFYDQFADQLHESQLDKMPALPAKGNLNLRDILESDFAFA

Compound | Yield per unit template [1] | transcription yield higher than that of compound 14 [1] | capping rate higher than that of compound 14 [2] | relative fluorescence intensity, times that of HN3002 [3] | relative fluorescence intensity, times that of N-7413 [3] | relative fluorescence intensity, times that of YK-CAP-001 [3] | relative fluorescence intensity, times that of YK-CAP-002 [3] | relative fluorescence intensity, times that of m6A [3] | Decapping rate (%) of DCP2 enzyme [4] | decapping rate lower than that of HN3002 [4] | decapping rate lower than that of N-7413 [4] | decapping rate lower than that of YK-CAP-001 [4] | decapping rate lower than that of YK-CAP-002 [4] | decapping rate lower than that of compound 14 [4] | decapping rate lower than that of m6A [4] | transcription yield higher than that of YK-CAP-001 ([1]; relative to YK-CAP-001) | transcription yield higher than that of YK-CAP-002 ([1]; relative to YK-CAP-002) | capping rate higher than that of YK-CAP-001 ([2]; difference to YK-CAP-001) | capping rate higher than that of YK-CAP-002 ([2]; difference to YK-CAP-002) | Capping rate ([2]; mRNA transcribed with the cap analog, LC-MS)
COC1C(OP(=O)([O-])OC[C@H]2O[C@@H](n3cnc4c(=O)[nH]c(N)nc43)C(O)C2O)[C@@H](COP(=O)(O)OP(=O)(O)OP(=O)(O)OC[C@]23O[C@@H]([n+]4cn(C)c5c(=O)[nH]c(N)nc54)C(O[C@H]2CC(=O)N(C)C)C3O)O[C@H]1n1cnc2c(N)ncnc21 (some centres unmarked) [YK-CAP-003] | 151.0 µg | 24.9% | 17.3% | 1.1 times | 1.2 times | 1.6 times | 1.8 times | 3.5 times | 11.8% | 11.4% | 36.8% | 14.5% | 12.8% | 17.0% | 15.7% |  |  |  |  | 
COC1C(OP(=O)([O-])OC[C@H]2O[C@@H](n3cnc4c(=O)[nH]c(N)nc43)C(O)C2O)[C@@H](COP(=O)(O)OP(=O)(O)OP(=O)(O)OC[C@]23O[C@@H]([n+]4cn(C)c5c(=O)[nH]c(N)nc54)C(O[C@H]2CC(F)F)C3O)O[C@H]1n1cnc2c(N)ncnc21 (some centres unmarked) [YK-CAP-004] | 163.2 µg | 35.0% | 18.8% | 1.2 times | 1.4 times | 1.8 times | 2.0 times | 4.0 times | 10.3% | 12.9% | 38.3% | 16.0% | 14.3% | 18.5% | 17.2% | 82.8% | 58.3% | 23.2% | 26.1% | 96.3%
COC1C(OP(=O)([O-])OC[C@H]2O[C@@H](n3cnc4c(=O)[nH]c(N)nc43)C(O)C2O)[C@@H](COP(=O)(O)OP(=O)(O)OP(=O)(O)OC[C@]23O[C@@H]([n+]4cn(C)c5c(=O)[nH]c(N)nc54)C(O[C@H]2CCS(C)(=O)=O)C3O)O[C@H]1n1cnc2c(N)ncnc21 (some centres unmarked) [YK-CAP-005] | 152.6 µg | 26.2% | 17.7% | 1.1 times | 1.3 times | 1.6 times | 1.9 times | 3.7 times | 12.8% | 10.4% | 35.8% | 13.5% | 11.8% | 16.0% | 14.7% |  |  |  |  | 
COC1C(OP(=O)([O-])OC[C@H]2O[C@@H](n3cnc4c(=O)[nH]c(N)nc43)C(O)C2O)[C@@H](COP(=O)(O)OP(=O)(O)OP(=O)(O)OC[C@]23O[C@@H]([n+]4cn(C)c5c(=O)[nH]c(N)nc54)C(O[C@H]2CCS(=O)(=O)N(C)C)C3O)O[C@H]1n1cnc2c(N)ncnc21 (some centres unmarked) [YK-CAP-006] | 153.1 µg | 26.6% | 17.6% | 1.2 times | 1.3 times | 1.7 times | 1.9 times | 3.7 times | 11.2% | 12.0% | 37.4% | 15.1% | 13.4% | 17.6% | 16.3% |  |  |  |  | 
